From PubChem BioAssay (NCI)
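Five concentrations, 48 hours, 96-well plates. TGI: total growth inhibition.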

How the values were obtained:
Experiment in all cases: NCI-60 cell line screen, 48 h
ACHN renal = test system: ACHN renal
NCI-H226 lung = test system: NCI-H226 lung
BT-549 breast = test system: BT-549 breast
HCT-116 colon = test system: HCT-116 colon
NCI-H23 lung = test system: NCI-H23 lung
HCC-2998 colon = test system: HCC-2998 colon
RPMI-8226 leukemia = test system: RPMI-8226 leukemia
MOLT-4 leukemia = test system: MOLT-4 leukemia
SN12C renal = test system: SN12C renal
SF-539 CNS = test system: SF-539 CNS
UO-31 renal = test system: UO-31 renal
SK-OV-3 ovarian = test system: SK-OV-3 ovarian
HS 578T breast = test system: HS 578T breast
SF-268 CNS = test system: SF-268 CNS
UACC-257 melanoma = test system: UACC-257 melanoma
SNB-19 CNS = test system: SNB-19 CNS
HT29 colon = test system: HT29 colon
LOX IMVI melanoma = test system: LOX IMVI melanoma
KM12 colon = test system: KM12 colon
SW-620 colon = test system: SW-620 colon
SNB-75 CNS = test system: SNB-75 CNS
MCF7 breast = test system: MCF7 breast
A498 renal = test system: A498 renal
HCT-15 colon = test system: HCT-15 colon
NCI-H460 lung = test system: NCI-H460 lung
HOP-62 NSCLC = test system: HOP-62 NSCLC
OVCAR-8 ovarian = test system: OVCAR-8 ovarian
NCI-H522 lung = test system: NCI-H522 lung
K-562 leukemia = test system: K-562 leukemia
MDA-MB-231 breast = test system: MDA-MB-231 breast
786-0 renal = test system: 786-0 renal
M14 melanoma = test system: M14 melanoma
DU-145 prostate = test system: DU-145 prostate
PC-3 prostate = test system: PC-3 prostate
SR leukemia = test system: SR leukemia
T-47D breast = test system: T-47D breast
A549 NSCLC = test system: A549 NSCLC
CAKI-1 renal = test system: CAKI-1 renal
SF-295 CNS = test system: SF-295 CNS
HL-60(TB) leukemia = test system: HL-60(TB) leukemia
EKVX NSCLC = test system: EKVX NSCLC
SK-MEL-5 melanoma = test system: SK-MEL-5 melanoma
TK-10 renal = test system: TK-10 renal
MDA-MB-435 = test system: MDA-MB-435
UACC-62 melanoma = test system: UACC-62 melanoma
SK-MEL-28 melanoma = test system: SK-MEL-28 melanoma
MDA-N = test system: MDA-N
MALME-3M melanoma = test system: MALME-3M melanoma
IGROV1 ovarian = test system: IGROV1 ovarian
CCRF-CEM leukemia = test system: CCRF-CEM leukemia
COLO 205 colon = test system: COLO 205 colon
NCI/ADR-RES ovarian = test system: NCI/ADR-RES ovarian
U251 CNS = test system: U251 CNS
OVCAR-5 ovarian = test system: OVCAR-5 ovarian
SK-MEL-2 melanoma = test system: SK-MEL-2 melanoma
OVCAR-4 ovarian = test system: OVCAR-4 ovarian
RXF 393 renal = test system: RXF 393 renal
HOP-92 NSCLC = test system: HOP-92 NSCLC
OVCAR-3 ovarian = test system: OVCAR-3 ovarian

CC(C)OP(=O)(OC(C)C)c1ccc2c(c1)OCCOCCOCCOCCO2
TGI (ACHN renal): > 100 µM
TGI (NCI-H226 lung): > 100 µM
TGI (BT-549 breast): > 100 µM
TGI (HCT-116 colon): > 100 µM
TGI (NCI-H23 lung): > 100 µM
TGI (HCC-2998 colon): > 100 µM
TGI (RPMI-8226 leukemia): > 100 µM
TGI (MOLT-4 leukemia): > 100 µM
TGI (SN12C renal): > 100 µM
TGI (SF-539 CNS): > 100 µM
TGI (UO-31 renal): > 100 µM
TGI (SK-OV-3 ovarian): > 100 µM
TGI (HS 578T breast): > 100 µM
TGI (SF-268 CNS): > 100 µM
TGI (UACC-257 melanoma): > 100 µM
TGI (SNB-19 CNS): > 100 µM
TGI (HT29 colon): > 100 µM
TGI (LOX IMVI melanoma): > 100 µM
TGI (KM12 colon): > 100 µM
TGI (SW-620 colon): > 100 µM
TGI (SNB-75 CNS): > 100 µM
TGI (MCF7 breast): > 100 µM
TGI (A498 renal): > 100 µM
TGI (HCT-15 colon): > 100 µM
TGI (NCI-H460 lung): > 100 µM
TGI (HOP-62 NSCLC): > 100 µM
TGI (OVCAR-8 ovarian): > 100 µM
TGI (NCI-H522 lung): > 100 µM
TGI (K-562 leukemia): > 100 µM
TGI (MDA-MB-231 breast): > 100 µM
TGI (786-0 renal): > 100 µM
TGI (M14 melanoma): > 100 µM
TGI (DU-145 prostate): > 100 µM
TGI (PC-3 prostate): > 100 µM
TGI (SR leukemia): > 100 µM
TGI (T-47D breast): > 100 µM
TGI (A549 NSCLC): > 100 µM
TGI (CAKI-1 renal): > 100 µM
TGI (SF-295 CNS): > 100 µM
TGI (HL-60(TB) leukemia): > 100 µM
TGI (EKVX NSCLC): > 100 µM
TGI (SK-MEL-5 melanoma): > 100 µM
TGI (TK-10 renal): > 100 µM
TGI (MDA-MB-435): > 100 µM
TGI (UACC-62 melanoma): > 100 µM
TGI (SK-MEL-28 melanoma): > 100 µM
TGI (MDA-N): > 100 µM
TGI (MALME-3M melanoma): > 100 µM
TGI (IGROV1 ovarian): > 100 µM
TGI (CCRF-CEM leukemia): > 100 µM
TGI (COLO 205 colon): > 100 µM

N=C(N)SCc1cc(Cl)cc(Cl)c1O
TGI (ACHN renal): 36.4 µM
TGI (NCI-H226 lung): 43.1 µM
TGI (BT-549 breast): 36.6 µM
TGI (HCT-116 colon): 29.8 µM
TGI (NCI/ADR-RES ovarian): 89.3 µM
TGI (NCI-H23 lung): 40.4 µM
TGI (HCC-2998 colon): 31.9 µM
TGI (RPMI-8226 leukemia): 47.5 µM
TGI (U251 CNS): 30 µM
TGI (MOLT-4 leukemia): 50.8 µM
TGI (SN12C renal): 36.6 µM
TGI (SF-539 CNS): 22.1 µM
TGI (UO-31 renal): 32.4 µM
TGI (SK-OV-3 ovarian): > 100 µM
TGI (OVCAR-5 ovarian): 40.3 µM
TGI (HS 578T breast): 72 µM
TGI (SF-268 CNS): 58.3 µM
TGI (UACC-257 melanoma): 31.6 µM
TGI (SNB-19 CNS): 56.8 µM
TGI (HT29 colon): 32.1 µM
TGI (LOX IMVI melanoma): 36.2 µM
TGI (KM12 colon): 33.7 µM
TGI (SW-620 colon): 49.4 µM
TGI (MCF7 breast): 60.1 µM
TGI (A498 renal): 51.7 µM
TGI (HCT-15 colon): 46.8 µM
TGI (NCI-H460 lung): 36.2 µM
TGI (HOP-62 NSCLC): 38 µM
TGI (OVCAR-8 ovarian): 38.3 µM
TGI (NCI-H522 lung): 33.4 µM
TGI (K-562 leukemia): 41.5 µM
TGI (MDA-MB-231 breast): 30.5 µM
TGI (786-0 renal): 32.2 µM
TGI (M14 melanoma): 42.1 µM
TGI (DU-145 prostate): 36.2 µM
TGI (PC-3 prostate): 43.9 µM
TGI (SK-MEL-2 melanoma): 39.6 µM
TGI (T-47D breast): 51.8 µM
TGI (OVCAR-4 ovarian): 51.6 µM
TGI (A549 NSCLC): 53.9 µM
TGI (CAKI-1 renal): 33.3 µM
TGI (SF-295 CNS): 55.7 µM
TGI (RXF 393 renal): 46.8 µM
TGI (HL-60(TB) leukemia): 21.1 µM
TGI (EKVX NSCLC): 42.8 µM
TGI (SK-MEL-5 melanoma): 31.9 µM
TGI (TK-10 renal): 35.4 µM
TGI (MDA-MB-435): 38 µM
TGI (UACC-62 melanoma): 34 µM
TGI (SK-MEL-28 melanoma): 46.4 µM
TGI (MDA-N): 33.1 µM
TGI (HOP-92 NSCLC): 35.1 µM
TGI (MALME-3M melanoma): 72.7 µM
TGI (IGROV1 ovarian): 38.2 µM
TGI (OVCAR-3 ovarian): 31.4 µM
TGI (CCRF-CEM leukemia): 35.6 µM
TGI (COLO 205 colon): 33 µM
